{"source": "patent US10751324B2", "about": "“Treatment of TNF- alpha cytotoxicity” (The University of Chicago, priority 2016, dated 2020)", "key": {"IKKß": {"biological_target": "T1, IKKß (Mus musculus, UniProt O88351)", "T1 construct": "Total cell lysate was prepared for western blotting analysis; endogenous in cells; host or cells: mouse embryonic fibroblasts (MEFs)", "T1 sequence (O88351 1-757)": "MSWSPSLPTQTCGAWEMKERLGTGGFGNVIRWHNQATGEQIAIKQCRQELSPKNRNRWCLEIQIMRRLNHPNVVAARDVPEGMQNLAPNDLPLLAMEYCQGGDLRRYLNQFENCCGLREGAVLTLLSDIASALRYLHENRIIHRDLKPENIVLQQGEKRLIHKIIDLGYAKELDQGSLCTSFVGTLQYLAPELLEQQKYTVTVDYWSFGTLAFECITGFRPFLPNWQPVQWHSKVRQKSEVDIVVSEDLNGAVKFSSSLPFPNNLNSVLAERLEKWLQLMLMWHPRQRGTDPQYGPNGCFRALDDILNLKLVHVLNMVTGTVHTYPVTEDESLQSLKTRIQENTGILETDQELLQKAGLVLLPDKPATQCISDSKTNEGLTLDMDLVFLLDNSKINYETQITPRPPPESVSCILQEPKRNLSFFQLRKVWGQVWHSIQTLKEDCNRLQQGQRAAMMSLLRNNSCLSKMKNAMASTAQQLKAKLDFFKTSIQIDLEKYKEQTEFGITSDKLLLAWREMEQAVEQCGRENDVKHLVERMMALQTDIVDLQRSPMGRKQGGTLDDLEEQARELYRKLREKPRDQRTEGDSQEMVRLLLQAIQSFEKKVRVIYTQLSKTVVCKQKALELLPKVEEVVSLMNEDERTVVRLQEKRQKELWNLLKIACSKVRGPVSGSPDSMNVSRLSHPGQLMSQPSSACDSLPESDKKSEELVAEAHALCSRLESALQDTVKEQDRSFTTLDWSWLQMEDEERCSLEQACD", "test": "IKKß phosphorylation by immunoblotting in TNFα-treated MEFs (\"in vitro kinase assay\")", "type": "cell-based", "conditions": "MEFs pre-treated with different doses for 1 hour, then cytotoxic TNFα 15 min; immunoblot, FIG. 17"}, "BAD [1]": {"system": "BAD", "test": "Cytotoxic dose TNFα-induced BAD translocation to mitochondria, cell fractionation and immunoblotting in MEFs", "conditions": "MEFs pre-treated with different doses 1 hour, cytotoxic TNFα 4 hours; FIG. 19B"}, "[2]": {"system": "wild type mice subjected to CLP surgery", "test": "Polymicrobial infection model (cecal ligation and puncture, CLP), mortality rate", "type": "in vivo, mouse", "conditions": "2.5 mg/kg i.p. 6 hours before CLP and each 12 hours after surgery; n=10, p<0.01; FIG. 20B", "procedure": "Wild type C57B6/J6 mice were maintained in a specific pathogen-free facility and housed on a 12:12-hour light/dark photoperiod at an ambient temperature of 22° C.±2° C. All animal experiments were conducted in accordance with the protocols approved by the Institutional Animal Care and Use Committee of the University of Chicago. 6-8 week old male mice were used for all of the experiments. The bacterial infusion model was performed by intraperitoneal (i.p.) injection of E. coli (ATCC 25922; 3×10^7 CFU). For the polymicrobial infection model, the CLP procedure was performed. The severity of CLP was adjusted to a high-grade sepsis. For the mock CLP procedure (Sham), mice underwent the same abdominal surgery as CLP procedure, except were not subject to the cecal ligation and puncture. Inhibitor treatments were performed using i.p. injection of the compound at a dose of 2.5 mg/kg body weight. Same amount of DMSO were i.p. injected as a control. […] Mortality rates were recorded for up to 120 hours for the CLP model and 50-60 hours for the E. coli model after the treatment and dying mice were pre-moved. […]\nIn these experiments, wild type mice were i.p injected with or without saracatinib (2.5 mg/kg body weight) for 6 hours, then challenged with E. coli (5×10^7CFU, i.p. injection). […] Mortality rate was determined (FIG. 20A); n=6, p<0.01. […] Mortality rate was determined (FIG. 20B); n=10, p<0.01."}, "BAD [3]": {"system": "BAD", "test": "TNFα-induced BAD mitochondrial translocation in fibroblasts pre-treated with actin stress fiber modulators", "type": "cell-based, mouse", "conditions": "for BAD mitochondrial translocation with non-cytotoxic dose TNFα: pre-treated 1 hour (1 μg/ml Cytochalasin D or 2.5 μg/ml Latrunculin B), 5 ng/ml TNFα 4 hours, FIG. 10E, 10G; for cytotoxic dose TNFα-induced BAD mitochondrial translocation: pre-treated 1 hour (30 nM Jasplakinolide or 5 μM S1P), then 80 ng/ml TNFα, FIG. 10A, 10C", "procedure": "Immunoprecipitation was performed as previously described (12). Caspase 3 assay was performed with Casp-3 cellular activity assay kit using Casp-3 substrate Ac-DEVD-pNA (Calbiochem). Active RhoA, active Src, and active Cdc42 assays were performed with G-LISA assay biochemical kit (Cytoskeleton, Inc.). Active GEF-H1 assay was performed by using GST-RhoA(G17A) to pull down the active GEF-H1 from cell extracts and analyzed by immunoblotting. Cytosol and mitochondria fractionations were prepared by the cytosol/mitochondria fractionation kit (Biovision), according to the manufacturer protocol. Cytoskeleton precipitation and G-actin/F-actin assay were performed by the G-actin/F-actin in vivo assay biochem kit (Cytoskeleton, Inc.)\n(§1) WT and Bad-deficient fibroblasts were pre-treated with 30 nM Jasplakinolide (FIG. 10A and FIG. 10B), 5 μM Sphingosine-1-phosphate (S1P) (FIG. 10C and FIG. 10D) or DMSO (control) for 1 hour, followed by stimulation with or without 80 ng/ml TNFα for various times, as indicated. Cell extracts were separated into cytosol and mitochondrial fractions. Subcellular localizations of BAD and IKK-phosphorylated BAD were determined. ß-actin, BCL-xL, and COX-2 were used as control (FIG. 10A and FIG. 10C). Apoptotic cells were identified by Annexin V and PI staining, followed by flow cytometric analysis. Data are as means±s.d. **, P<0.01, as analyzed by two-tailed Student's t test (FIG. 10B and FIG. 10D).\n(§2) WT and Bad-deficient fibroblasts were pretreated with 1 μg/ml Cytochalasin D (FIG. 10E and FIG. 10F), 2.5 μg/ml Latrunculin B (FIG. 10G and FIG. 10H), or DMSO (control) for 1 hours, followed by stimulation with or without 5 ng/ml or 80 ng/ml TNFα for 4 hours (FIG. 10E and FIG. 10G) or 12 hours (FIG. 10F and FIG. 10H). Cell extracts were separated into cytosol and mitochondrial fractions. Subcellular localizations of BAD and IKK phosphorylated BAD were determined. ß-actin, BCL-xL, and COX-2 were used as control (FIG. 10E and FIG. 10G). Apoptotic cells were identified by Annexin V and PI staining, followed by flow cytometric analysis. Data are means±s.d. and represent three individual experiments. **, P<0.01, as analyzed by two-tailed Student's t test (FIG. 10B, FIG. 10D, FIG. 10F, and FIG. 10H)."}, "WT fibroblasts": {"system": "WT fibroblasts", "test": "TNFα-induced apoptosis in fibroblasts pre-treated with actin stress fiber modulators, Annexin V/PI flow cytometry", "type": "cell-based, mouse", "conditions": "for apoptosis with non-cytotoxic dose TNFα: pre-treated 1 hour (1 μg/ml Cytochalasin D or 2.5 μg/ml Latrunculin B), 5 ng/ml TNFα 12 hours, FIG. 10F, 10H; for cytotoxic dose TNFα-induced apoptosis: pre-treated 1 hour (30 nM Jasplakinolide or 5 μM S1P), then 80 ng/ml TNFα, FIG. 10B, 10D", "procedure": "Annexin V and propidium iodide (PI) staining was performed with FITC Annexin V apoptosis Detection kit (BD Pharmingen). Apoptotic cells were analyzed by FACS canto flow cytometer (BD Biosciences).\nas §1, §2"}}, "data": [{"smiles": "Cc1nc(Nc2ncc(C(=O)Nc3c(C)cccc3Cl)s2)cc(N2CCN(CCO)CC2)n1.O", "note": "[dasatinib, N-(2-chloro-6-methylphenyl)-2-[[6-[4-(2-hydroxyethyl)-1-piperazinyl]-2-methyl-4-pyrimidinyl]amino]-5-thiazole carboxamide monohydrate]", "values": [{"measurement": "IKK phosphorylation", "setting": "IKKß", "value": "do not inhibit"}, {"measurement": "cytotoxic dose TNFα-induced BAD translocation to mitochondria", "setting": "BAD [1]", "value": "inhibit"}]}, {"smiles": "[2H]C([2H])([2H])N1CCN(CCOc2cc(OC3CCOCC3)c3c(Nc4c(Cl)ccc5c4OCO5)ncnc3c2)CC1", "note": "[ZG5129]", "values": [{"measurement": "polymicrobial infection-induced severe sepsis (mortality rate)", "setting": "[2]", "value": "inhibit"}]}, {"smiles": "C/C1=C/C(=O)O[C@@H]2C[C@@H](CC[C@H](C)/C=C\\CC1)O[C@@](O)([C@@H]1CSC(=O)N1)C2", "note": "[latrunculin B, Latrunculin B]", "values": [{"measurement": "BAD mitochondrial translocation with non-cytotoxic dose TNFα", "setting": "BAD [3]", "value": "induced"}, {"measurement": "apoptosis with non-cytotoxic dose TNFα", "setting": "WT fibroblasts", "value": "induced"}]}, {"smiles": "C=C1[C@@H](C)[C@H]2[C@H](Cc3ccccc3)NC(=O)[C@]23[C@H](OC(C)=O)/C=C/[C@@](C)(O)C(=O)[C@@H](C)C/C=C/[C@H]3[C@@H]1O", "note": "[cytochalasin D, Cytochalasin D]", "values": [{"measurement": "BAD mitochondrial translocation with non-cytotoxic dose TNFα", "setting": "BAD [3]", "value": "induced"}, {"measurement": "apoptosis with non-cytotoxic dose TNFα", "setting": "WT fibroblasts", "value": "induced"}]}, {"smiles": "C/C1=C\\[C@H](C)C[C@H](C)OC(=O)C[C@H](c2ccc(O)cc2)NC(=O)[C@@H](Cc2c(Br)[nH]c3ccccc23)N(C)C(=O)[C@H](C)NC(=O)[C@@H](C)C1", "note": "[Jasplakinolide]", "values": [{"measurement": "cytotoxic dose TNFα-induced BAD mitochondrial translocation", "setting": "BAD [3]", "value": "significantly reduced"}, {"measurement": "cytotoxic dose TNFα-induced apoptosis", "setting": "WT fibroblasts", "value": "significantly reduced"}]}, {"smiles": "CN1CCN(CCOc2cc(OC3CCOCC3)c3c(Nc4c(Cl)ccc5c4OCO5)ncnc3c2)CC1", "note": "[saracatinib]", "values": [{"measurement": "cytotoxic dose TNFα-induced BAD translocation to mitochondria", "setting": "BAD [1]", "value": "inhibit"}]}, {"smiles": "CCCCCCCCCCCCC/C=C/[C@@H](O)[C@@H](N)COP(=O)(O)O", "note": "[sphingosine-1-phosphate, Sphingosine-1-phosphate]", "values": [{"measurement": "cytotoxic dose TNFα-induced BAD mitochondrial translocation", "setting": "BAD [3]", "value": "significantly reduced"}, {"measurement": "cytotoxic dose TNFα-induced apoptosis", "setting": "WT fibroblasts", "value": "significantly reduced"}]}]}
